US20230192772A1, “ANTIMICROBIAL PEPTIDES AND USES THEREOF” (SORBONNE UNIVERSITE, priority 2016, published 2023)
Ends that are not written are not given here.

Tests used:
Type in all cases: cell-based
[1] = LC50 on immune cells (cytotoxic effect, cell viability)
Protocol: The mouse immune cells are obtained from C57BL6 mouse bone marrow. The human immune cells were purified from the whole blood of healthy donors (blood bank, IMSS, Cuernavaca, Mexico).
(§1) The peptides are incubated at 37° C., 5% CO2 in the presence of 500,000 immune and non-immune cells in RPMI medium at varied concentrations and at varied times. Peptide-free cells are used as the negative control and cells incubated for 5 min at 50° C. or in the presence of DMSO (30%) are used as the positive control. After incubation, the cells are washed then labelled with propidium iodide so as to measure the cell viability. The cell viability is analysed by counting or with flow cytometry in the presence of antibodies coupled with fluorochromes corresponding to characteristic markers of each cell population. The LC50 is then calculated as being the concentration of DA2N and DA2NEQ peptides inducing the death of 50% of each one of the immune cell populations.
(§2) Cytometry data processing is carried out with FlowJo software.

[2] = test system: Bacillus subtilis CIP 52.65; assay: MIC/MBC, growth inhibition in liquid medium (Example 2); settings: Table 2
From the text: (§3) Escherichia coli (ATCC 8739, ATCC ML35p and P7 BLSE), Pseudomonas aeruginosa (ATCC 9027 and ATCC 27853), Klebsiella oxytoca (CIP 7932), Klebsiella pneumoniae (CIP 52.211), Salmonella enterica (CIP 8297), Yersinia ruckeri (ATCC 29473), Vibrio parahemolyticus (IFREMER 01 01/252), Staphylococcus aureus (ATCC 6538, ST 1065 and MRSA), Staphylococcus epidermidis (BM 3302), Listeria monocytogenes (SOR 100), Enterococcus faecalis (CIP A186, CIP 103015)), Kocuria rhizophila (ATCC 9341), Lactococcus garviae (ATCC 43921), Bacillus subtilis (CIP 52.65).
(§4) For each strain, a 5 ml pre-culture in LB medium is prepared by inoculating a colony of the bacterial strain of interest. The pre-culture is incubated at 37° C. under stirring overnight. The culture is subcultured (30 µL) in 5 mL. The culture concentration is evaluated by measuring the optical density at 620 nm. The concentration is adjusted by dilution so as to obtain a suspension with an OD of 0.05 at 620 nm.
(§5) The MIC is determined using a growth inhibition test in liquid medium. The MIC is defined as being the lowest peptide concentration capable of inhibiting the bacterial strain tested, after incubation for 18 h at 37° C. The test was carried out in a sterile microtitration plate containing 96 wells. A series of increasing concentrations of each peptide (0.2 to 100 µM) was prepared beforehand in sterile MilliQ water. In each well, 10 µL of peptide was incubated with 90 µL of bacterial suspension (10^7 cfu/mL) in yeast extract-free LB medium. The microplate was incubated at 37° C. for 18 h. The bacterial growth was evaluated by measuring the OD at 620 nm using a plate reader.
(§6) The negative growth inhibition control was obtained by replacing the solution containing the peptide by sterile MilliQ water. The positive control suitable for completely inhibiting the growth of the bacterial strains was obtained by replacing the solution containing the peptide by 10 µL of formaldehyde.
(§7) The results are interpreted by calculating the percentage of bacterial growth in each well according to the formula:
(§8) %Growth = (OD well - OD of T0)/(OD of T100-OD of T0)*100 where
(§9) • OD of T100 = OD of growth control (bacterial suspension free from sample under test, 100% growth), • OD of T0 = OD of sterility control (culture medium + bacterium + 10 µL formaldehyde, 0% growth) and • OD well = OD of well for which it is sought to calculate the growth percentage (bacterial suspension + peptide under test).
(§10) The MBC is defined as being the minimum peptide concentration leaving no surviving bacteria of the inoculum after incubation at 37° C. for 24 hours. This test consists of smearing the contents of the well wherein the peptide has inhibited bacterial growth on a Petri dish (LB agar), followed by incubation for 24 h at 37° C.

[3] = test system: Staphylococcus aureus ST 1065; assay: as above; settings: Table 2
From the text: as §3, §4, §5, §6, §7, §8, §9, §10

[4] = test system: Staphylococcus aureus ATCC 6538; assay: as above; settings: Table 2
From the text: as §3, §4, §5, §6, §7, §8, §9, §10

[5] = test system: Klebsiella oxytoca CIP 7932; assay: as above; settings: Table 2
From the text: as §3, §4, §5, §6, §7, §8, §9, §10

[6] = test system: Staphylococcus epidermidis BM 3302; assay: as above; settings: Table 2
From the text: as §3, §4, §5, §6, §7, §8, §9, §10

[7] = test system: Klebsiella pneumoniae CIP 5211; assay: as above; settings: Table 2
From the text: as §3, §4, §5, §6, §7, §8, §9, §10

[8] = test system: Escherichia coli ML35p; assay: as above; settings: Table 2
From the text: as §3, §4, §5, §6, §7, §8, §9, §10

[9] = test system: Pseudomonas aeruginosa ATCC 9027; assay: as above; settings: Table 2
From the text: as §3, §4, §5, §6, §7, §8, §9, §10

[10] = test system: Escherichia coli ATCC 8739; assay: as above; settings: Table 2
From the text: as §3, §4, §5, §6, §7, §8, §9, §10

[11] = test system: Kocuria rhizophila ATCC 9341; assay: as above; settings: Table 2
From the text: as §3, §4, §5, §6, §7, §8, §9, §10

[12] = LC50 on red blood cells; settings: Human red blood cells
Protocol: The human red blood cells were purified from the whole blood of healthy donors (blood bank, IMSS, Cuernavaca, Mexico).
(§11) The peptides are incubated at 37° C., 5% CO2 in the presence of 500,000 red blood cells in RPMI medium at varied concentrations and at varied times. Peptide-free cells are used as the negative control and cells incubated for 5 min at 50° C. or in the presence of DMSO (30%) are used as the positive control. The LC50 is then calculated as being the concentration of DA2N and DA2NEQ peptides inducing the death of 50% of the red blood cells.

[13] = test system: non-immune cells (epithelial cells); assay: Survival of non-immune cells; settings: doses of the micromolar order; mouse and human epithelial cells
Protocol: The following non-immune cells were extracted after sacrificing C57BL6 mice or in a surgical context: epithelial cells, adipocytes, hepatocytes.
as §1, §2

[14] = LC50 on red blood cells; settings: C57BL6; Mouse red blood cells
Protocol: The mouse red blood cells are obtained from C57BL6 mouse bone marrow.
as §11

[15] = C57BL6, Neutrophils, Mouse cells
[16] = C57BL6, T lymphocytes, Mouse cells

Q: For ALWKTLLKKVGKVAGKAVLNAVTNMANQN-OH [DA2N], which CC50 ([1]; C57BL6, Monocytes, Mouse cells) is on record?
A: 5 µM

Q: What about the CC50 ([1]; C57BL6, NK cells, Mouse cells) of the same substance?
A: 3 µM

Q: And the CC50 [1, 15]?
A: 6 µM

Q: What about the CC50 [1, 16] of the same substance?
A: 3 µM

Q: And the CC50 ([1]; Monocytes, Human cells)?
A: 4 µM

Q: And the CC50 ([1]; NK cells, Human cells)?
A: 4 µM

Q: And the CC50 ([1]; Neutrophils, Human cells)?
A: 7.5 µM

Q: And the CC50 ([1]; T lymphocytes, Human cells)?
A: 4 µM

Q: And the MBC [2]?
A: 6.25 µM

Q: What about the MIC [2] of the same substance?
A: 6.25 µM

Q: And the MBC [3]?
A: 12.5 µM

Q: What about the MIC [3] of the same substance?
A: 12.5 µM

Q: What about the MBC [4] of the same substance?
A: 6.25 µM

Q: And the MIC [4]?
A: 6.25 µM

Q: What about the MBC [5] of the same substance?
A: 6.25 µM

Q: And the MIC [5]?
A: 3.12 µM

Q: And the MBC [6]?
A: 12.5 µM

Q: And the MIC [6]?
A: 1 µM

Q: And the MIC [7]?
A: 3.12 µM

Q: What about the MBC [8] of the same substance?
A: 6.25 µM

Q: And the MIC [8]?
A: 3.12 µM

Q: What about the MBC [9] of the same substance?
A: 12.5 µM

Q: What about the MIC [9] of the same substance?
A: 12.5 µM

Q: And the MBC [10]?
A: 3.12 µM

Q: And the MIC [10]?
A: 3.12 µM

Q: What about the MBC [11] of the same substance?
A: 3.12 µM

Q: And the MIC [11]?
A: 3.12 µM

Q: What about the CC50 [12] of the same substance?
A: 750 µM

Q: What about the “death of non-immune cells” value [13] of the same substance?
A: induce the death of immune cells but not of non-immune cells

Q: And the CC50 [14]?
A: 750 µM

Q: Which CC50 ([1]; C57BL6, Monocytes, Mouse cells) does the source give for “ALWKTLLKKVGKVAGKAVLNAVTNMANQNEQ [DA2NEQ, ALWKTLLKKVGKVAGKAVLNAVTNMANQNEQOH]” here?
A: 7 µM

Q: What about the CC50 ([1]; C57BL6, NK cells, Mouse cells) of the same substance?
A: 4 µM

Q: And the CC50 [1, 15]?
A: 7.5 µM

Q: And the CC50 [1, 16]?
A: 5 µM

Q: What about the CC50 ([1]; Monocytes, Human cells) of the same substance?
A: 4 µM

Q: And the CC50 ([1]; NK cells, Human cells)?
A: 4 µM

Q: What about the CC50 ([1]; Neutrophils, Human cells) of the same substance?
A: 7 µM

Q: And the CC50 ([1]; T lymphocytes, Human cells)?
A: 5 µM

Q: And the MBC [2]?
A: 6.25 µM

Q: What about the MIC [2] of the same substance?
A: 6.25 µM

Q: And the MBC [3]?
A: >100 µM

Q: What about the MIC [3] of the same substance?
A: >100 µM

Q: What about the MBC [4] of the same substance?
A: 12.5 µM

Q: What about the MIC [4] of the same substance?
A: 12.5 µM

Q: What about the MBC [5] of the same substance?
A: >100 µM

Q: And the MIC [5]?
A: 12.5 µM

Q: And the MBC [6]?
A: >100 µM

Q: What about the MIC [6] of the same substance?
A: >100 µM

Q: And the MIC [7]?
A: 3.12 µM

Q: What about the MBC [8] of the same substance?
A: 6.25 µM

Q: What about the MIC [8] of the same substance?
A: 6.25 µM

Q: And the MBC [9]?
A: 25 µM

Q: And the MIC [9]?
A: 12.5 µM

Q: What about the MBC [10] of the same substance?
A: 6.25 µM

Q: And the MIC [10]?
A: 3.12 µM

Q: And the MBC [11]?
A: 6.25 µM

Q: What about the MIC [11] of the same substance?
A: 6.25 µM

Q: And the CC50 [12]?
A: 750 µM

Q: What about the “death of non-immune cells” value [13] of the same substance?
A: induce the death of immune cells but not of non-immune cells

Q: What about the CC50 [14] of the same substance?
A: 750 µM
